Assay results as given in paper PMC9571608, “Detection of Bitterness in Vitamins Is Mediated by the Activation of Bitter Taste Receptors” (Nutrients, 2022).
Where “and” joins values, the source holds several entries; their conditions need not be identical. Equal entries are not always repeated. Structures can show the parent of a compound that is named as a salt. Where two headings read alike, the source gives them in different places.

Tests used:
[1] = system: human bitter taste detection (sensory panel); assay: Human bitter taste detection threshold, three-alternative forced choice (3-AFC), BET method; format: in vivo; settings: 32 panelists, group BET
Description: Based on bibliographic studies, preliminary works performed in the laboratory, and the results of taste receptor functional assays, the following vitamins were included in this study: vitamin B1 (thiamine hydrochloride), vitamin B2 (riboflavin phosphate), vitamin B3 (niacinamide), and vitamin B6 (pyridoxine hydrochloride). These vitamins are present in high quantities in nutritional supplements, safe for humans (except at very high concentrations), and can induce a strong bitter taste. These concentrations were determined according to the toxicity threshold of each compound tested and the maximum daily reference intake. These compounds were prepared in commercial mineral water (Evian®, Evian, France).
The threshold values for bitter taste detection were determined by 32 panelists (18–65 years old, 14 males and 18 females, without sensory perception disorders, food allergies, drug treatments, or heart, lung, or cardiac pathologies) who were recruited from Dijon (France) and the surrounding areas. An ethical committee approved this study (Personal Protection Committee of Rennes—Ouest V, protocol code 2018A01342-53), and all panelists signed an informed consent form. A sensory test called three-alternative forced choice (3-AFC) was used in accordance with the protocol detailed in NF ISO 13301. Before performing the measurement sessions, four training sessions were provided to familiarize the panelists with the bitter taste, test procedure, and signal acquisition software. In this discriminative test, six series consisting of three samples, which were each encoded using randomly generated three-digit numbers, were simultaneously delivered to the panelists. The six 3-AFC presentations contained two blank samples (commercial mineral water, manufacturer: Evian, France) and ascending concentrations of vitamin solution. Before the test, subjects were advised that each presentation consisted of two samples that contained only water and one sample that contained a taste. For each 3-AFC presentation, subjects were asked to take the samples sequentially from left to right. Then, they placed the entirety of each sample solution in their mouths and carefully gargled to ensure that the solution was dispersed throughout the mouth. A sip-and-spit procedure was used; subjects rinsed their mouths with commercial mineral water between each series of tests. Subjects were asked to indicate which of the samples contained the stimulus. If a subject perceived no difference between the three samples, he or she was asked to choose one (forced choice). The sensory tests were conducted in a room devoted to sensory evaluation. For the case of colored samples, black-colored glasses were used, and tastings were performed under red light. […] The aim of this sensory analysis was to determine the bitter taste detection threshold for these vitamins and not an olfactory detection threshold. Therefore, the measurements were conducted using pinched nose clips. The subjects waited one minute between each series and had to thoroughly rinse their mouths. Four repetitions were performed per subject for each vitamin to obtain statistically interpretable results, which represented a total of 288 samples. During the sensory analysis session, a bitterness detection threshold of only two vitamins was used (36 samples) to avoid the ingestion of a high vitamin quantity, which is potentially harmful. The answers from the panelists were collected using software dedicated to sensory analysis (FIZZ acquisition V.2.51 software).
The best estimate threshold (BET) method was used to determine the bitter detection threshold for four vitamins. The individual best-estimated detection threshold (BET) was proposed in ASTM E679-04. ASTM E679-04 is a standard practice for the determination of odor and taste thresholds via a forced-choice ascending concentration series method of limits. […]

TAS2R1 [2] = target: T1, TAS2R1 (Homo sapiens, UniProt Q9NYW7)
T1 sequence (Q9NYW7 whole entry): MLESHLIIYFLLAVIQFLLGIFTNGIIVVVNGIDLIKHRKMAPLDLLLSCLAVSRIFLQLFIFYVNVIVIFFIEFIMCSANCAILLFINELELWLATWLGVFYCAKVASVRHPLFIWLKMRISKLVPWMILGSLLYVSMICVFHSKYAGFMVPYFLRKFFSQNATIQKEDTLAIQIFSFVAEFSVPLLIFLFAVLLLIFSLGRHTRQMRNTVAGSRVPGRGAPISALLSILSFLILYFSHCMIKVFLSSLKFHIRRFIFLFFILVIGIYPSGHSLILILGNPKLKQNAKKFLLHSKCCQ
Protocol: (§1) A functional expression study was carried out as described previously. TAS2R expression vectors (pcDNA5FRT-SST3-TAS2R-HSV and pEAK-10-SST3-TAS2RHSV) were kindly provided by Wolfgang Meyerhof (German Institute of Human Nutrition Postdam-Rehbruecke, Nuthetal, Germany). For all constructs, the N-terminus contained the first 45 amino acids of rat somatostatin 3 (SST3) to improve membrane targeting. A sequence coding for a herpes simplex virus glycoprotein D epitope (HSV-tag) was added at the C-terminus to allow immunocytochemical detection of the receptor [13, 14, 23, 24]. HEK293T cells stably expressing the chimeric G protein α subunit Gα16gust44 [25, 26] were seeded into poly-D-lysine-coated 96-well black plates (0.35 × 10^5 cells/well) in high-glucose DMEM supplemented with 2 mM GlutaMAX, 10% dialysed fetal bovine serum penicillin/streptomycin, and G418 (400 µg/mL), and then placed under a humidified and controlled atmosphere (37 °C and 6.3% CO2) overnight. […]
(§2) Approximately 24–26 h after transfection, cells were loaded for 1 h at 37 °C with Fluo4-AM (2 µM, Molecular Probes), which had been previously mixed with pluronic acid F-127 (0.01%) in C1 buffer (130 mM NaCl, 5 mM KCl, 10 mM HEPES, 2 mM CaCl2, 10 mM pyruvic acid, pH 7.4, 300 mOsm) containing 2.5 mM probenecid (Life Technologies). […] The calcium signal was recorded for 90 s after injection of a range of compounds using a Flexstation 3 fluorometric imaging plate reader (Molecular Devices) at a wavelength of 510 nm after excitation at 488 nm. All substance concentrations were measured in triplicate in at least three independent experiments. […]
(§3) To obtain a dose–response curve, the ratio between the maximum variation in fluorescence after ligand addition and the initial fluorescence before addition (ΔF/F0) was calculated for each well. The fluorescence signals collected for each replicate were averaged for the same substance concentration, and the fluorescence changes in the corresponding mock-transfected cells were subtracted. […]

TAS2R39 [3] = target: T2, TAS2R39 (Homo sapiens, UniProt P59534); settings: vitamin B1 as thiamine hydrochloride, up to M.A.C 1 mM
T2 sequence (P59534 whole entry): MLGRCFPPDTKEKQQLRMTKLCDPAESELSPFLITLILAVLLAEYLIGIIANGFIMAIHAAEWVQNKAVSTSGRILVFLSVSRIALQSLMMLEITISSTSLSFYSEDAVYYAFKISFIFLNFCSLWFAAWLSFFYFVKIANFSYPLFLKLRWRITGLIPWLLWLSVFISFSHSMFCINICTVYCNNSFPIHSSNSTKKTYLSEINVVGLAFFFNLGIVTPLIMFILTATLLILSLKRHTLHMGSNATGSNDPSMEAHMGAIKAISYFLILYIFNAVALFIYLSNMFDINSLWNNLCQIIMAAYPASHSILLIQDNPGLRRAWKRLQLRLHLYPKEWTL
Protocol: as §1, §2, §3

25 human TAS2Rs = assay: Taste receptor functional assay, panel of 25 human TAS2Rs; format: cell-based; settings: lowest concentration that could elicit TAS2R activation
Protocol: A functional expression study was carried out as described previously. TAS2R expression vectors (pcDNA5FRT-SST3-TAS2R-HSV and pEAK-10-SST3-TAS2RHSV) were kindly provided by Wolfgang Meyerhof (German Institute of Human Nutrition Postdam-Rehbruecke, Nuthetal, Germany). For all constructs, the N-terminus contained the first 45 amino acids of rat somatostatin 3 (SST3) to improve membrane targeting. A sequence coding for a herpes simplex virus glycoprotein D epitope (HSV-tag) was added at the C-terminus to allow immunocytochemical detection of the receptor [13, 14, 23, 24]. […]
as §2

TAS2R1 [4] = target: T1, TAS2R1; settings: cited from earlier work
TAS2R7 [5] = target: T3, TAS2R7 (Homo sapiens, UniProt Q9NYW3); settings: cited from earlier work
T3 sequence (Q9NYW3 1-318): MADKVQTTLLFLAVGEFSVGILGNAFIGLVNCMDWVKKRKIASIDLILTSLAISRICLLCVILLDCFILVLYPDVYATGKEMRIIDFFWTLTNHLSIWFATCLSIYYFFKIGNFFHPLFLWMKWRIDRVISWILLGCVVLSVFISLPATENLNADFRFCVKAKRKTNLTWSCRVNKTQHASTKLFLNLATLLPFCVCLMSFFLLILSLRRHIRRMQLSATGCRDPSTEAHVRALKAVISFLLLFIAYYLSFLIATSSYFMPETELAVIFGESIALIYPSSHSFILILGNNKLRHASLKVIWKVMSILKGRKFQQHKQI

TAS2R39 [6] = target: T2, TAS2R39; settings: cited from earlier work
TAS2R7 [7] = target: T3, TAS2R7; assay: Calcium mobilization assay, cells transiently expressing TAS2R7; format: cell-based; design: expressed in transfected cells; host or cells: HEK293T cells stably expressing Gα16gust44; settings: vitamin B1 as thiamine hydrochloride, up to M.A.C 1 mM
Protocol: A functional expression study was carried out as described previously. TAS2R expression vectors (pcDNA5FRT-SST3-TAS2R-HSV and pEAK-10-SST3-TAS2RHSV) were kindly provided by Wolfgang Meyerhof (German Institute of Human Nutrition Postdam-Rehbruecke, Nuthetal, Germany). For all constructs, the N-terminus contained the first 45 amino acids of rat somatostatin 3 (SST3) to improve membrane targeting. A sequence coding for a herpes simplex virus glycoprotein D epitope (HSV-tag) was added at the C-terminus to allow immunocytochemical detection of the receptor [13, 14, 23, 24]. HEK293T cells stably expressing the chimeric G protein α subunit Gα16gust44 [25, 26] were seeded into poly-D-lysine-coated 96-well black plates (0.35 × 10^5 cells/well) in high-glucose DMEM supplemented with 2 mM GlutaMAX, 10% dialysed fetal bovine serum penicillin/streptomycin, and G418 (400 µg/mL), and then placed under a humidified and controlled atmosphere (37 °C and 6.3% CO2) overnight. After 24–26 h of incubation, cells were transiently transfected with TAS2R expression plasmids (120 ng/well) using Lipofectamine 2000 reagent (0.4 µL/well) (Thermo Fisher Scientific, Illkirch-Graffenstaden, France).
Approximately 24–26 h after transfection, cells were loaded for 1 h at 37 °C with Fluo4-AM (2 µM, Molecular Probes), which had been previously mixed with pluronic acid F-127 (0.01%) in C1 buffer (130 mM NaCl, 5 mM KCl, 10 mM HEPES, 2 mM CaCl2, 10 mM pyruvic acid, pH 7.4, 300 mOsm) containing 2.5 mM probenecid (Life Technologies). Approximately one hour after loading, the plate was rinsed twice with 100 µL of C1 buffer. The calcium signal was recorded for 90 s after injection of a range of compounds using a Flexstation 3 fluorometric imaging plate reader (Molecular Devices) at a wavelength of 510 nm after excitation at 488 nm. All substance concentrations were measured in triplicate in at least three independent experiments. As cell transfection and substances can interfere with cellular viability and calcium assays, all compounds were tested on mock-transfected cells (cells transfected with empty vectors) on the same plates for all substance concentrations used.
To obtain a dose–response curve, the ratio between the maximum variation in fluorescence after ligand addition and the initial fluorescence before addition (ΔF/F0) was calculated for each well. The fluorescence signals collected for each replicate were averaged for the same substance concentration, and the fluorescence changes in the corresponding mock-transfected cells were subtracted. […] The dose–response data were fitted, and EC50 values were calculated using a four-parameter logistic equation using SigmaPlot software (Systat Software, San Jose, CA, USA). […]

[8] = aqueous solution (mineral water), nose clips

Row | SMILES | Human Bitter Taste Detection Threshold ([1]; Figure 3, aqueous solution) [mM] | Human Bitter Taste Detection Threshold [1, 8] | TAS2R1 activation (TAS2R1 [2]; 0.1 mM) | TAS2R Receptor 1 response (TAS2R1 [2]; HEK293T-Gα16gust44 cells, calcium signal, up to M.A.C) | TAS2R39 activation (TAS2R39 [3]) | Cellular Bitter Taste Detection Threshold (25 human TAS2Rs) | Human Bitter Taste Detection Threshold ([1]; aqueous solution (mineral water), nose clips, listed as B1) [mM] | Human Bitter Taste Detection Threshold ([1]; aqueous solution (mineral water), nose clips, listed as vitamin B1) [mM] | TAS2R1 activation (TAS2R1 [4]) | TAS2R7 activation (TAS2R7 [5]) | TAS2R39 activation (TAS2R39 [6]) | TAS2R7 activation (TAS2R7 [7])
1 | Cc1cc2nc3c(=O)[nH]c(=O)nc-3n(C[C@H](O)[C@H](O)[C@H](O)COP(=O)(O)O)c2cc1C [Vitamin B2, riboflavin phosphate] | 0.65 | 0.65 mM | – | – | – | – | – | – | – | – | – | –
2 | Cc1ncc(C[n+]2csc(CCO)c2C)c(N)n1 [Vitamin B1, thiamine hydrochloride] | 1.1 | – | activation | + | unable to demonstrate the activation | 0.1 mM and 0.10 mM | 1.10 | 1.1 | activation | activation | activation | unable to demonstrate the activation
3 | NC(=O)c1cccnc1 [Vitamin B3, niacinamide] | 5.5 | 5.5 mM and 5.50 mM | – | – | – | – | – | – | – | – | – | –
